Laboratory results taken from patent US3946003A, “Hydroxy substituted phenylglycylamido-3-heterocyclic thiomethyl cephalosporins” (Eli Lilly and Company, priority 1974, dated 1976).
Converted amounts (≈) assume the structure as drawn.

Assays:
Aerobacter aerogenes = assay: Antibacterial activity, MIC by Gradient-plate technique; assay type: cell-based; details: for MIC: Klebsiella aerogenes, read-out: Minimum Inhibitory Concentration
Description: (§1) The cephalosporin compounds of this invention (Formula I, R1 =H) are orally effective broad spectrum antibiotics which are useful in controlling infections caused by gram-positive and gram-negative bacteria. […] In Table I, below, the antibacterial activity of the compounds of formula I wherein R1 is hydrogen is illustrated. The bacteria are gram-negative bacteria and the activity is presented as minimum inhibitory concentrations in micrograms per milliliter (mcg./ml.). The activity was obtained by the Gradient-plate technique.

Escherichia coli = assay: as above; assay type: cell-based; details: for MIC: read-out: Minimum Inhibitory Concentration
Description: as §1

Klebsiella pneumoniae = assay: as above; assay type: cell-based; details: for MIC: read-out: Minimum Inhibitory Concentration
Description: as §1

Pseudomonas aeruginosa = assay: as above; assay type: cell-based; details: for MIC: read-out: Minimum Inhibitory Concentration
Description: as §1

Salmonella heidelberg = assay: as above; assay type: cell-based; details: for MIC: Salmonella enterica, read-out: Minimum Inhibitory Concentration
Description: as §1

Serratia marcescens = assay: as above; assay type: cell-based; details: for MIC: read-out: Minimum Inhibitory Concentration
Description: as §1

Shigella sp. = assay: as above; assay type: cell-based; details: for MIC: read-out: Minimum Inhibitory Concentration
Description: as §1

[1] = tested on: Diplococcus pneumoniae Park I; assay: Oral therapy of experimental infections in mice; assay type: in vivo; details: Streptococcus pneumoniae, oral (gavage) at 1 and 5 hours post infection, read-out: Effective Dose (ED50)
Protocol: (§2) In Table II, the respective effective doses (ED50) for these antibiotics is presented. The data were obtained in mice infected with the indicated microorganism following oral administration of the antibiotics at 1 and 5 hours post infection.
(§3) ^1 mg./kg. × 2 oral doses (gavage) at 1 and 5 hours post

Escherichia coli EC14 = assay: Oral therapy of experimental infections in mice; assay type: in vivo; details: oral (gavage) at 1 and 5 hours post infection, read-out: Effective Dose (ED50)
Protocol: as §2, §3

Proteus mirabilis PR6 = assay: Oral therapy of experimental infections in mice; assay type: in vivo; details: oral (gavage) at 1 and 5 hours post infection, read-out: Effective Dose (ED50)
Protocol: as §2, §3

[2] = tested on: Streptococcus pyogenes C203; assay: Oral therapy of experimental infections in mice; assay type: in vivo; details: for ED50: Streptococcus pyogenes C203, mice, oral (gavage) at 1 and 5 hours post infection, read-out: Effective Dose (ED50)
Protocol: as §2, §3

[3] = Duration of antibiotic blood levels in mice after single oral dose (agar disc-plate assay, Sarcina lutea); assay type: in vivo; details: mouse, single oral dose 20 mg./kg.; for concentration at 10 min: 10 min post administration; for concentration at 20 min: 20 min post administration; for concentration at 0.5 h: 30 min post administration; for concentration at 1 h: 60 min post administration; for concentration at 1.5 h: 90 min post administration; for concentration at 2 h: 120 min post administration; for Cmax: read-out: peak blood level
Protocol: The determinations were carried out in groups of 3 or 4 mice as indicated in the table and the results averaged. At the indicated time intervals post administration, blood samples were withdrawn at the orbital sinus from each mouse in the test group and assayed for the concentration of antibiotic. […]

physchem = details: 6% dmf

Molecule	MIC (Aerobacter aerogenes) [µg/mL]	MIC (Escherichia coli) [µg/mL]	MIC (Klebsiella pneumoniae) [µg/mL]	MIC (Pseudomonas aeruginosa) [µg/mL]	MIC (Salmonella heidelberg) [µg/mL]	MIC (Serratia marcescens) [µg/mL]	MIC (Shigella sp.) [µg/mL]	ED50 [1] [mg/kg]	ED50 (Escherichia coli EC14) [mg/kg]	ED50 (Proteus mirabilis PR6) [mg/kg]	ED50 [2] [mg/kg]	concentration at 10 min [3] [ng/mL]	concentration at 20 min [3] [ng/mL]	concentration at 0.5 h [3] [ng/mL]	concentration at 1 h [3] [ng/mL]	concentration at 1.5 h [3] [ng/mL]	concentration at 2 h [3] [ng/mL]	Cmax [3] [ng/mL]	further results
7β-(D-4-hydroxyphenylglycylamido)-3-(1-methyl-1H-tetrazole-5-ylthiomethyl)-3-cephem-4-carboxylic acid	–	–	–	–	–	–	–	–	–	–	–	–	–	–	–	–	–	–	Minimum Inhibitory Concentration (Aerobacter aerogenes): 0.9 µg/mL; Minimum Inhibitory Concentration (Escherichia coli): 0.9 µg/mL; Minimum Inhibitory Concentration (Klebsiella pneumoniae): 0.6 µg/mL; Minimum Inhibitory Concentration (Pseudomonas aeruginosa): 120 µg/mL; Minimum Inhibitory Concentration (Salmonella heidelberg): 0.8 µg/mL; Minimum Inhibitory Concentration (Serratia marcescens): 5.0 µg/mL; Minimum Inhibitory Concentration (Shigella sp.): 0.8 µg/mL
Cn1nnnc1SCC1=C(C(=O)O)N2C(=O)[C@@H](NC(=O)[C@H](N)c3ccc(O)cc3)[C@H]2SC1 [compound 1, 7β-(4-hydroxyphenylglycylamido)-3-(1-methyl-1H-tetrazole-5-ylthiomethyl)-3-cephem-4-carboxylic acid]	0.7 (≈ 1.47 µM)	1 (≈ 2.09 µM)	1 (≈ 2.09 µM)	> 200	0.6 (≈ 1.26 µM)	12.5 (≈ 26.2 µM)	0.8 (≈ 1.68 µM)	< 1.1	3.7	< 4.5	0.18	2560	5780	8550	8880	6940	5360	~8900	–
Cn1nnnc1SCC1=C(C(=O)O)N2C(=O)C(NC(=O)C(N)c3ccccc3)C2SC1 (stereo not drawn) [compound 2, reference compound]	–	–	–	–	–	–	–	–	8.4	–	4.05	260	750	1170	890	1090	–	~1200	–
Cc1nnc(SCC2=C(C(=O)O)N3C(=O)[C@@H](NC(=O)[C@H](N)c4ccc(O)cc4)[C@H]3SC2)s1 [compound 3, 7β-(D-4-hydroxyphenylglycylamido)-3-(5-methyl-1,3,4-thiadiazol-2-ylthiomethyl)-3-cephem-4-carboxylic acid]	1 (≈ 2.03 µM)	2.5 (≈ 5.06 µM)	1 (≈ 2.03 µM)	> 200	1 (≈ 2.03 µM)	47.5 (≈ 96.2 µM)	2 (≈ 4.05 µM)	< 1.1	2.1	< 4.5	0.08	10600	13200	13900	14300	9800	5200	~14300	ED50 times lower than that exhibited by compound No. 4 ([2]; S. pyogenes infections in mice, 1.15/0.08): approximately 14 times; ED50 times lower than that exhibited by compound No. 2 ([2]; S. pyogenes infections in mice, 4.05/0.08): approximately 50 times; pKa (physchem; pKa (first)): 4.4; pKa (physchem; pKa (second)): 7.6; pKa (physchem; pKa (third)): 12.2
Cc1nnc(SCC2=C(C(=O)O)N3C(=O)C(NC(=O)C(N)c4ccccc4)C3SC2)s1 (stereo not drawn) [compound 4, reference compound]	–	–	–	–	–	–	–	5.2	6.9	20.7	1.15	1980	3380	3990	2340	1610	–	~4000	–
